From ChEMBL document CHEMBL1201862, “PubChem BioAssay data set” (2004) come the findings set out here.

Active and inactive are the calls of the source.

The nature of assay [1]: HEK293T cell viability, dose response, counter-screen for EBV LMP1 inhibitor project, CellTiter-Glo luminescence, dry powder (AID 624372). It counts as functional, HEK293.
In a further assay the test system is P388. Kind of assay: cells. The conditions noted are these: Mus musculus. The format is functional.
The next assay deals with SN12K1. Kind of assay: cells. It counts as functional. The settings on record: Homo sapiens.
The next assay concerns P388/ADR. Kind of assay: cells. The conditions noted are these: Mus musculus. The format is functional.
Assay [2] can be described thus: inhibitors of intracellular T. cruzi replication, confirmation, NIH3T3 host cells, beta-gal luminescence (AID 2044).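 Also: intracellular parasites grown in NIH/3T3 mouse fibroblasts as host cells; luminescent beta-galactosidase reporter signal from transgenic T. cruzi replicating inside host cells; inhibitors lower the luminescence signal.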 It counts as functional, cell-based.
Assay [3] has as its target T1, Trace amine-associated receptor 1 (Homo sapiens, UniProt Q96RJ0).
T1 sequence (Q96RJ0 whole entry): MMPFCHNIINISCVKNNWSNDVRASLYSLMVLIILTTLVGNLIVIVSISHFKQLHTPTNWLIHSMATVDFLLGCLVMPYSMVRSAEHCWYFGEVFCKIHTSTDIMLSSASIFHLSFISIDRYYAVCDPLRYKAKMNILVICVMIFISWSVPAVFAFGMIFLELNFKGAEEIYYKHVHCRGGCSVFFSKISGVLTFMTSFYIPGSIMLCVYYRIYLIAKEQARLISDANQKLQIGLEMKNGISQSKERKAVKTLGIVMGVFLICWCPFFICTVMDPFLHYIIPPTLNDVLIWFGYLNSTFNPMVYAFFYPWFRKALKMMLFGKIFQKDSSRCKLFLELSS
Nature of the assay: Counterscreen for antagonists of the human trace amine associated receptor 1 (hTAAR1): Fluorescence-based cell-based high throughput dose response assay to identify TAAR1 Agonists. The format is functional.

The nature of assay [4]: cytotoxicity toward NIH3T3 fibroblasts, dose response, counter-screen, cell-based, ATP luminescence, mouse fibroblasts (AID 2010).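 Also: cells exposed to compound for about 90 hours before reading.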 The format is functional. On the technique in general: A counterscreen serves to expose hits that act by an unwanted route or on another target.
In assay [5] the target is T1, Trace amine-associated receptor 1. Nature of the assay: Fluorescence-based cell-based high throughput dose response assay to identify antagonists of the human trace amine associated receptor 1 (TAAR1). The format is functional.
Assay [6] is described as follows: Counterscreen for […] of the human trace amine associated receptor 1 (TAAR1): Fluorescence-based cell-based high throughput dose response assay to identify nonselective Ga16 agonists. It counts as functional.
The nature of assay [7]: Counterscreen for antagonists of the human trace amine associated receptor 1 (hTAAR1): Fluorescence-based cell-based high throughput dose response assay to identify nonselective Ga16 antagonists. It counts as functional.
Assay [8] is described as follows: CRF-BP/CRF-R2 complex antagonists, dose response, cell-based, uHTS hits, 384-well (AID 651639). The format is functional, Homo sapiens. The settings on record: read-out: IC50_Mean.
Assay [9] concerns the target T2, Corticotropin-releasing factor receptor 2/Corticotropin-releasing factor-binding protein (Homo sapiens, UniProt P24387+Q13324).
T2 sequence (Q13324 whole entry): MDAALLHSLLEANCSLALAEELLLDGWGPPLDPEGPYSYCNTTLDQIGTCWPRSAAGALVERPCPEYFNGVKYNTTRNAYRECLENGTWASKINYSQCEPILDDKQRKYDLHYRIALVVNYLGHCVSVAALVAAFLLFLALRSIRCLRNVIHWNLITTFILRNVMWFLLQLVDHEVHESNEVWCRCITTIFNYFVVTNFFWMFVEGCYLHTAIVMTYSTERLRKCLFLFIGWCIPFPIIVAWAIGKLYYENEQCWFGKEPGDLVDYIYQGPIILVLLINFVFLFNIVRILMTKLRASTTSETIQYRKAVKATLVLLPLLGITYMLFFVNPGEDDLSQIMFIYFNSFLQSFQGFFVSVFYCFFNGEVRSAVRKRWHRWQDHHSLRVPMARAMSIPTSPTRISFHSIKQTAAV
T2 sequence (P24387 whole entry): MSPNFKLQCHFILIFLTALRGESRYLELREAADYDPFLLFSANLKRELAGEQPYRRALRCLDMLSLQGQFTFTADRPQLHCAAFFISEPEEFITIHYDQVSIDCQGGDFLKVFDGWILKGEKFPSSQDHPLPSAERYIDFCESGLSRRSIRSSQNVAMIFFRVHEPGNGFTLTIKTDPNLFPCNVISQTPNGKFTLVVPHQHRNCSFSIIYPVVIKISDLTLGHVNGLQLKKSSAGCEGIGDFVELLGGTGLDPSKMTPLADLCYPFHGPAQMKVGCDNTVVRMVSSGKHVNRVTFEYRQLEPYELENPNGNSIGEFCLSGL
Kind of assay: Dose Response confirmation of uHTS hits for small molecule antagonists of the CRF-binding protein and CRF-R2 receptor complex. It counts as functional. The conditions noted are these: read-out: IC50_Mean.

Assay [10] deals with T2, Corticotropin-releasing factor receptor 2/Corticotropin-releasing factor-binding protein. Kind of assay: activators of CRF receptor 2 with binding protein – uHTS hits, confirmation (AID 602473). The format is functional. The settings on record: read-out: EC50_Mean.
The target of assay [11] is SWI/SNF-related matrix-associated actin-dependent regulator of chromatin subfamily A member 2 (Homo sapiens, UniProt P51531). Nature of the assay: Luminescence-based cell-based high throughput dose response assay to identify activators of the function of SWI/SNF related, matrix associated, actin dependent regulator of chromatin, subfamily a, member 2 (SMARCA2, BRM). The format is functional.
SWI/SNF-related matrix-associated actin-dependent regulator of chromatin subfamily A member 2, sequence (P51531 whole entry): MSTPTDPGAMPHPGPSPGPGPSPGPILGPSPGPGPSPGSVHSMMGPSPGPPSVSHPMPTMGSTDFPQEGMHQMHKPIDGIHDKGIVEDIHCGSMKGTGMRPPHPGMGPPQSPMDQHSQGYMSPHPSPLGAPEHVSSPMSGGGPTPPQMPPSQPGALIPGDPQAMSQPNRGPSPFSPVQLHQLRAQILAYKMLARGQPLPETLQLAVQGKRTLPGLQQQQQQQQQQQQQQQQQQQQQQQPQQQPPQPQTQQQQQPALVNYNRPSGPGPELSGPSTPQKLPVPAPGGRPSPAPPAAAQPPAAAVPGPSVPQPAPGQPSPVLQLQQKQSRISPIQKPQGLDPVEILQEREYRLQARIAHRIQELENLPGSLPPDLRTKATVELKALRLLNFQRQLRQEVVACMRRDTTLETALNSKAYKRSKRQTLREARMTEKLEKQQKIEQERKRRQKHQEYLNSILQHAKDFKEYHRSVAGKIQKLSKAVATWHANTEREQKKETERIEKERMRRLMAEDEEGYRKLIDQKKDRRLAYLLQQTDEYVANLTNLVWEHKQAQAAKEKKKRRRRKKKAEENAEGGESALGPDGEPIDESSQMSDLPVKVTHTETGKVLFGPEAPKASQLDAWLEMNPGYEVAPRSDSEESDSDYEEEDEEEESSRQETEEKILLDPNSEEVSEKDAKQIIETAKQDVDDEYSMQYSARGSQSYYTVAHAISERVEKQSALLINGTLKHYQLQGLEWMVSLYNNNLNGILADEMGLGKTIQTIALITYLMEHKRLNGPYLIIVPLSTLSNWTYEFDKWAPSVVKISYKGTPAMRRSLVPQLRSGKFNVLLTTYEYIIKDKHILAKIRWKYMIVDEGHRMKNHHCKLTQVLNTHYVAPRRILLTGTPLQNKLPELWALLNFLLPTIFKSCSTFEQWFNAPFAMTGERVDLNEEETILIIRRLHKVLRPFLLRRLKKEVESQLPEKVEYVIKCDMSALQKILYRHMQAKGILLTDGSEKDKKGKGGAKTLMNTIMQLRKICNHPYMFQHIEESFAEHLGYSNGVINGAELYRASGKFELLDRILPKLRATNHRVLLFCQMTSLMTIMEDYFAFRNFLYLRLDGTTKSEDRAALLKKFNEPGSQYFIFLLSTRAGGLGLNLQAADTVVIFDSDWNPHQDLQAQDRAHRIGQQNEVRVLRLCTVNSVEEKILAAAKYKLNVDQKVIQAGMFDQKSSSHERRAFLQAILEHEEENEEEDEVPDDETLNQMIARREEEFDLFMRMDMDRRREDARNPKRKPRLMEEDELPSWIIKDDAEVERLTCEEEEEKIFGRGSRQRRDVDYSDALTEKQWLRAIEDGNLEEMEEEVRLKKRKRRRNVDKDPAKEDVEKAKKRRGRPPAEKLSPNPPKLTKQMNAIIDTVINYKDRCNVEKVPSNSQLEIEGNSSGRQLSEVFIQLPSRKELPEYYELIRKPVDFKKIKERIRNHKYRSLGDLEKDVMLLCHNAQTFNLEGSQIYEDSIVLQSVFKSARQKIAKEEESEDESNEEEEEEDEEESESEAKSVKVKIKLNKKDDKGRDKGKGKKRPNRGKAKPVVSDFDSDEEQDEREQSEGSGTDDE

Assay [12] is described as follows: Counterscreen for activators of the function of SWI/SNF related, matrix associated, actin dependent regulator of chromatin, subfamily a, member 2 (SMARCA2, BRM): Luminescence-based cell-based high throughput dose response assay to identify non-selective compounds using the VP16 reporter assay. The format is functional.
In assay [13] the target is T3, Short transient receptor potential channel 4 (Mus musculus, UniProt Q9QUQ5).
T3 sequence (Q9QUQ5 whole entry): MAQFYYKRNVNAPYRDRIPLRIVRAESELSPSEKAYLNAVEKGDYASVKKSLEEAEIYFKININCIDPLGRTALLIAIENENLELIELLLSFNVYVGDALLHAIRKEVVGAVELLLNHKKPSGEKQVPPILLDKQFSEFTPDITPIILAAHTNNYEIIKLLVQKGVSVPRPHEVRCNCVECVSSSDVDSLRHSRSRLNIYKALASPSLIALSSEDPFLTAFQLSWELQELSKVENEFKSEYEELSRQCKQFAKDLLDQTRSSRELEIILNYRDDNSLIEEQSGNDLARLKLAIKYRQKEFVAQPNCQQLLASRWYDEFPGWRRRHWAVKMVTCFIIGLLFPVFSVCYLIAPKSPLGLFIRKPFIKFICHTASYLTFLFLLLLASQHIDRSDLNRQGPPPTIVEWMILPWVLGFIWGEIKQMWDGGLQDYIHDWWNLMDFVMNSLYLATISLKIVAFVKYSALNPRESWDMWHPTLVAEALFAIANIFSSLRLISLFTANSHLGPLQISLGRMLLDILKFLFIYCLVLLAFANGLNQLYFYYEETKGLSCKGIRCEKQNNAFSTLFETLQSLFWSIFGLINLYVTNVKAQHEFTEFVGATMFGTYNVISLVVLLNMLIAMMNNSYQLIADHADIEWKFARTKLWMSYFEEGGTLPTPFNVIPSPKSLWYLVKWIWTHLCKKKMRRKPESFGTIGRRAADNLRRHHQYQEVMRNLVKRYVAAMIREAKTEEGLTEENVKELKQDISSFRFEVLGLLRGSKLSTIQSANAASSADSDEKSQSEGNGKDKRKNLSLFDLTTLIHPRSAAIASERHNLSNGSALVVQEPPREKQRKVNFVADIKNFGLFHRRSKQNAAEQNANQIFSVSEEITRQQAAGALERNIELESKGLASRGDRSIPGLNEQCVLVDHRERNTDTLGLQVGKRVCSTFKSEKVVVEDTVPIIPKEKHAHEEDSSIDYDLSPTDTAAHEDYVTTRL
Kind of assay: mouse TRPC4 channel inhibitors, dose response, cell-based, HEK293 TRPC4/mu-opioid, Fluo-4 calcium (AID 434942).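 Also: potency of inhibitors blocking the TRPC4 calcium response.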 It counts as functional.

In assay [1], `C/C(=N\NC(=S)N1CCN(C2CCCCCC2)CC1)c1ccccn1` gave an AbsAC35 of 162.11 µM. For the same compound, the GI50 in the assay with P388 is < 0.01 µM (active); in the assay on SN12K1, 0.01 µM (active); in the assay with P388/ADR, < 0.01 µM (active).
For `CN(CC(=O)Nc1cccc(F)c1)C(=O)c1ccccc1OCC(=O)Nc1cccc(C(F)(F)F)c1`, the EC50 in [2] is 0.775 µM (active); in [3], > 29.9 µM (inactive); in [4], > 60 µM (not active); in [6], > 29.9 µM (inactive). In addition, the values for the IC50 in assay [5] and in [7] were 6.89 µM (active) and 13.5 µM (inactive), respectively.
Consider `COC(=O)C1=C/C=C\CN(C(c2ccccc2)c2ccccc2)/C=C\1C(=O)OC`, for which the IC50 in [8] is > 20 µM (inactive); in [9], 5.7 µM (active). In assay [10], the EC50 is > 53 µM (inactive).
`Cn1cc(-c2nc3ccccc3[nH]2)c2ccccc21`: the EC50 in assay [11] was > 91.2 µM (inactive); in assay [12], > 91.2 µM (inactive); in [13], 3.76 µM (active).

By GI50 is commonly meant the concentration that inhibits growth by half.
